The text below walks through data of ChEMBL document CHEMBL4229526, “Quinoxaline derivatives as potential antitrypanosomal and antileishmanial agents” (Bioorg Med Chem, 2018).

Each structure is given as a SMILES string. pIC50: −log10 of the molar value.

One may read the CC50 as the concentration that lowers cell viability or growth by half. One may read the pIC50 as the IC50 on a negative log10 scale, so that one unit is a factor of ten.

Data set [1] is described as follows: Cytotoxicity against human HepG2 cells after 48 hrs by CellTiter-Glo cell viability assay. Format: cell-based.
In data set [2] the test system is Leishmania donovani. In words: Antileishmanial activity against Leishmania donovani MHOM/SD/62/1S-CL2D LdBOB axenic amastigotes harboring eGFP after 72 hrs by resazurin dye based fluorescence assay. Type of data set: functional, organism-based. For orientation: Resazurin is reduced to fluorescent resorufin, in cell work by metabolically active cells.
Data set [3] concerns Trypanosoma cruzi. Briefly: Antitrypanosomal activity against Trypanosoma cruzi Tulahuen amastigote forms infected in rat H9c2 cells assessed as reduction in infected cells after 72 hrs by DRAQ5 DNA dye based confocal microscopic analysis. As to conditions: H9c2, 72 h. Format: functional, organism-based.
Data set [4] concerns Leishmania donovani. Briefly: Antileishmanial activity against Leishmania donovani MHOM/SD/62/1S-CL2D LdBOB amastigotes harboring eGFP infected in human THP1 cells assessed as reduction in number of amastigotes per cell after 96 hrs by DAPI staining based microscopic analysis. Type of data set: functional, organism-based. As to conditions: THP-1, 96 h.
Data set [5] concerns Leishmania donovani. Briefly: Antileishmanial activity against Leishmania donovani MHOM/SD/62/1S-CL2D LdBOB amastigotes harboring eGFP infected in human THP1 cells assessed as reduction in infected cells after 96 hrs by DAPI staining based microscopic analysis. Type of data set: functional, organism-based. The conditions noted are these: THP-1, 96 h.
Data set [6] relates to Trypanosoma cruzi. Briefly: Antitrypanosomal activity against Trypanosoma cruzi Tulahuen amastigote forms infected in rat H9c2 cells assessed as reduction in amastigote number per cell after 72 hrs by DRAQ5 DNA dye based confocal microscopic analysis. Type of data set: functional, organism-based. The conditions noted are these: H9c2, 72 h.
Another data set has as its system Trypanosoma brucei. In words: Antitrypanosomal activity against Trypanosoma brucei Lister 427 bloodstream forms after 48 hrs by resazurin dye based fluorescence assay. The conditions noted are these: Lister 427, 48 h. Type of data set: functional, organism-based.
For a further data set, the system named is THP-1. In words: Cytotoxicity against human THP1 cells infected with Leishmania donovani MHOM/SD/62/1S-CL2D LdBOB amastigotes harboring eGFP assessed as reduction in cell number after 96 hrs by DAPI staining based microscopic analysis. The conditions noted are these: THP-1, 96 h.
Data set [7] relates to Trypanosoma cruzi. In words: Antitrypanosomal activity against Trypanosoma cruzi Tulahuen trypomastigote forms infected in monkey LLC-MK2 cells after 24 hrs by CellTiter-Glo luminescent cell viability assay. Format: functional, organism-based. The conditions noted are these: LLC-MK2, 24 h. On the technique in general: In ATP-based viability assays light output follows the ATP content of the culture.

In a further data set the test system is H9c2. Briefly: Cytotoxicity against rat H9c2 cells infected with Trypanosoma cruzi Tulahuen amastigote forms assessed as reduction in cell number after 72 hrs by DRAQ5 DNA dye based confocal microscopic analysis. The conditions noted are these: H9c2, 72 h.
The subject of data set [8] is Leishmania donovani. Briefly: Potency index, ratio of amphotericin B IC50 to test compound IC50 for Leishmania donovani MHOM/SD/62/1S-CL2D LdBOB axenic amastigotes harboring eGFP. Format: functional.
Data set [9] deals with Leishmania donovani. In words: Potency index, ratio of miltefosine IC50 to test compound IC50 for Leishmania donovani MHOM/SD/62/1S-CL2D LdBOB axenic amastigotes harboring eGFP. Type of data set: functional.

As for `COc1ccc(-c2nc3ccccc3nc2-c2ccc(OC)cc2)cc1`, in [1], the CC50 at 48 h is above 100 µM. The pIC50 was below 4.30 in the data set with Leishmania donovani [2]; 4.90 in the data set with Trypanosoma cruzi [3]; below 4.30 in the data set on Leishmania donovani [4]; below 4.30 with Leishmania donovani [5]; 5.00 in the data set on Trypanosoma cruzi [6]; 4.50 in the data set with Trypanosoma brucei. The pIC50 in the data set on THP-1, in the data set with Trypanosoma cruzi [7] and with H9c2 was below 4.30 each time.

`Clc1ccc2nc(-c3ccccc3)c(-c3ccccc3)nc2c1` yielded a CC50 at 48 h in data set [1] above 100 µM. In addition, the pIC50 is below 4.30 in the data set with Leishmania donovani [2]; 4.70 with Trypanosoma cruzi [3]; below 4.30 in the data set on Leishmania donovani [4]; below 4.30 in the data set with Leishmania donovani [5]; 4.80 in the data set with Trypanosoma cruzi [6]; 4.60 in the data set on Trypanosoma brucei. Further, the pIC50 in the data set on THP-1, with Trypanosoma cruzi [7] and in the data set with H9c2 was below 4.30 in each case.

In the case of `Clc1cc2nc(-c3ccccc3)c(-c3ccccc3)nc2cc1Cl`, the CC50 at 48 h in [1] is above 100 µM. The pIC50 was below 4.30 in the data set on Leishmania donovani [2]; below 4.30 in the data set on Trypanosoma cruzi [3]; below 4.30 in the data set with Leishmania donovani [4]; below 4.30 with Leishmania donovani [5]; below 4.30 in the data set on Trypanosoma cruzi [6]; 4.40 in the data set with Trypanosoma brucei. The pIC50 in the data set on THP-1, in the data set on Trypanosoma cruzi [7] and in the data set with H9c2 was below 4.30 in each case.

Consider `Cc1ccc(-c2nc3cc(Cl)c(Cl)cc3nc2-c2ccccc2)cc1`, for which the CC50 at 48 h in data set [1] is above 100 µM. Also, the negative logarithm of the IC50 (pIC50) in the data set with Leishmania donovani [2] is below 4.30; in the data set on Trypanosoma cruzi [3], 4.80; in the data set with Leishmania donovani [4], below 4.30; in the data set with Leishmania donovani [5], below 4.30; in the data set on Trypanosoma cruzi [6] it was 5.00; with Trypanosoma brucei, 4.70. Also, the negative-log IC50 (pIC50) in the data set on THP-1, in the data set on Trypanosoma cruzi [7] and in the data set with H9c2 was below 4.30 in each case.

The compound `CCCCNc1nc2ccc(OC)cc2nc1S(C)(=O)=O` returned a CC50 at 48 h in [1] of 19.9 µM. Also, the negative-log IC50 (pIC50) in the data set on Leishmania donovani [2] is 4.90; in the data set with Trypanosoma cruzi [3], 4.70; in the data set with Leishmania donovani [4] it was 4.60; in the data set on Leishmania donovani [5], 4.50; in the data set on Trypanosoma cruzi [6], 4.70; in the data set with Trypanosoma brucei it was 4.60. The pIC50 in the data set on THP-1 is 4.90; in the data set on Trypanosoma cruzi [7], 5.05; in the data set on H9c2, 4.80.

`COc1ccc2nc(NCCO)c(S(C)(=O)=O)nc2c1` came in with a CC50 at 48 h in [1] of 39.8 µM. The pIC50 in the data set with Leishmania donovani [2] is 4.60; in the data set with Trypanosoma cruzi [3] it was 4.40; in the data set with Leishmania donovani [4], 4.60; with Leishmania donovani [5], below 4.30; in the data set on Trypanosoma cruzi [6] it was 4.50; with Trypanosoma brucei it was 4.40. In addition, the pIC50 with THP-1 was 4.50; with Trypanosoma cruzi [7], 4.63; in the data set on H9c2, 4.50.

In data set [1], `CCCCNc1nc2ccccc2nc1S(C)(=O)=O` came in with a CC50 at 48 h of 12.6 µM. The pIC50 in the data set with Leishmania donovani [2] is 5.00; in the data set on Trypanosoma cruzi [3], 4.80; with Leishmania donovani [4], 4.70; in the data set on Leishmania donovani [5], 4.60; in the data set with Trypanosoma cruzi [6], 4.80; in the data set with Trypanosoma brucei, 4.60. The values for the pIC50 in the data set on THP-1, with Trypanosoma cruzi [7] and in the data set on H9c2 were 4.90, 5.06 and 5.00, respectively.

Take `CS(=O)(=O)c1ccc(-c2nc3ccc(Br)cc3nc2-c2ccc(Cl)cc2)cc1`: the CC50 at 48 h in data set [1] was found to be 2 µM. In addition, the pIC50 in the data set on Leishmania donovani [2] was 6.49; with Trypanosoma cruzi [3], 5.70; in the data set with Leishmania donovani [4], 5.60; in the data set with Leishmania donovani [5], 5.40; in the data set on Trypanosoma cruzi [6] it was 5.70; with Trypanosoma brucei it was 5.90. The figures for the negative-log IC50 (pIC50) with THP-1, in the data set on Trypanosoma cruzi [7] and in the data set on H9c2 were 5.70, 7.22 and 5.90, respectively. Besides, the “Ratio IC50” value came to 5.3 with Leishmania donovani [8] and 26.3 in the data set with Leishmania donovani [9].

With `COc1ccc2nc(-c3ccc(Cl)cc3)c(-c3ccc(S(C)(=O)=O)cc3)nc2c1`, in data set [1], the cytotoxic concentration (CC50) at 48 h turned out to be 5.01 µM. Further, the pIC50 with Leishmania donovani [2] was 5.60; in the data set with Trypanosoma cruzi [3] it was 5.00; with Leishmania donovani [4] it was 4.90; with Leishmania donovani [5], 5.00; with Trypanosoma cruzi [6], 5.10; in the data set with Trypanosoma brucei it was 4.70. Besides, the pIC50 is 5.10 with THP-1, 5.94 with Trypanosoma cruzi [7] and 5.30 in the data set on H9c2.

For `COc1ccc2nc(-c3ccc(-c4ccccc4)cc3)c(-c3ccc(S(C)(=O)=O)cc3)nc2c1`, the half-maximal cytotoxic concentration (CC50) at 48 h in [1] was above 100 µM. For the same compound, the pIC50 is below 4.30 in the data set with Leishmania donovani [2]; 4.70 with Trypanosoma cruzi [3]; below 4.30 in the data set with Leishmania donovani [4]; below 4.30 in the data set with Leishmania donovani [5]; 4.50 with Trypanosoma cruzi [6]; 4.50 in the data set on Trypanosoma brucei. The pIC50 with THP-1 is 4.40; in the data set with Trypanosoma cruzi [7] it was 4.37; with H9c2 it was 4.60.

Turning to `COc1ccc2nc(-c3ccc(Cl)cc3)c(-c3ccc([S+](C)[O-])cc3)nc2c1` (stereo unspecified), the CC50 at 48 h in data set [1] stood at 7.94 µM. Also, the pIC50 with Leishmania donovani [2] was 5.50; in the data set with Trypanosoma cruzi [3], 4.90; with Leishmania donovani [4] it was 4.90; in the data set with Leishmania donovani [5] it was 4.90; with Trypanosoma cruzi [6] it was 5.00; in the data set on Trypanosoma brucei, 5.40. Moreover, the results for the pIC50 in the data set on THP-1, in the data set on Trypanosoma cruzi [7] and in the data set on H9c2 were 4.90, 5.98 and 5.20, respectively.

Compound `COc1ccc2nc(-c3ccc(S(C)(=O)=O)cc3)c(-c3ccc(Cl)cc3)nc2c1` yielded a CC50 at 48 h in [1] of 25.1 µM. For the same compound, the pIC50 with Leishmania donovani [2] was 5.10; with Trypanosoma cruzi [3], 4.60; in the data set on Leishmania donovani [4] it was 4.70; in the data set on Leishmania donovani [5], 4.70; with Trypanosoma cruzi [6] it was 4.70; in the data set on Trypanosoma brucei, 5.00. Further, the negative logarithm of the IC50 (pIC50) with THP-1 was 4.90; in the data set on Trypanosoma cruzi [7], 5.38; in the data set with H9c2, 5.00.

As to `CS(=O)(=O)c1ccc(-c2nc3ccc(Cl)cc3nc2-c2ccc(Cl)cc2)cc1`, in data set [1], the CC50 at 48 h is 2 µM. Moreover, the pIC50 was 6.49 in the data set on Leishmania donovani [2]; 5.70 with Trypanosoma cruzi [3]; 5.30 in the data set with Leishmania donovani [4]; 5.30 with Leishmania donovani [5]; 5.70 with Trypanosoma cruzi [6]; 5.60 in the data set with Trypanosoma brucei. Besides, the pIC50 in the data set on THP-1 is 5.80; in the data set with Trypanosoma cruzi [7], 7.05; with H9c2 it was 5.80. In addition, the entries for the “Ratio IC50” value in the data set on Leishmania donovani [8] and in the data set with Leishmania donovani [9] were 5.3 and 26.3, respectively.

On to `C[S+]([O-])c1ccc(-c2nc3ccc(Cl)cc3nc2-c2ccc(Cl)cc2)cc1` (stereo unspecified), for which the CC50 at 48 h in data set [1] amounted to 1.58 µM. Also, the negative-log IC50 (pIC50) in the data set on Leishmania donovani [2] was 6.49; with Trypanosoma cruzi [3] it was 5.70; in the data set with Leishmania donovani [4], 5.40; with Leishmania donovani [5], 5.50; with Trypanosoma cruzi [6] it was 5.80; with Trypanosoma brucei, 6.20. Further, the figures for the negative logarithm of the IC50 (pIC50) in the data set with THP-1, with Trypanosoma cruzi [7] and in the data set on H9c2 were 5.80, 7.00 and 5.80, respectively. Also, the “Ratio IC50” value with Leishmania donovani [8] is given as 5.3; in the data set with Leishmania donovani [9], 26.3.

The compound `CS(=O)(=O)c1ccc(-c2nc3ccccc3nc2-c2ccc(Cl)cc2)cc1` showed a CC50 at 48 h in data set [1] of 10 µM. Also, the pIC50 in the data set with Leishmania donovani [2] is 5.50; with Trypanosoma cruzi [3], 4.90; in the data set with Leishmania donovani [4] it was 5.00; in the data set on Leishmania donovani [5] it was 5.00; in the data set with Trypanosoma cruzi [6] it was 5.00; in the data set with Trypanosoma brucei it was 5.00. For the same compound, the values for the pIC50 with THP-1, with Trypanosoma cruzi [7] and with H9c2 were 5.00, 6.15 and 5.30, respectively.
